Experimental findings from patent publication US20230357179A1, “RAF KINASE INHIBITORS AND METHODS OF USE THEREOF” (Deciphera Pharmaceuticals, LLC, priority 2021, published 2023) are described below.

In the first test the target is T1, A-Raf kinase (Homo sapiens, UniProt P10398, Y301D/Y302D).
T1 construct: purchased Sigma
T1 sequence (P10398 with tags, fused parts or gaps Y301D/Y302D): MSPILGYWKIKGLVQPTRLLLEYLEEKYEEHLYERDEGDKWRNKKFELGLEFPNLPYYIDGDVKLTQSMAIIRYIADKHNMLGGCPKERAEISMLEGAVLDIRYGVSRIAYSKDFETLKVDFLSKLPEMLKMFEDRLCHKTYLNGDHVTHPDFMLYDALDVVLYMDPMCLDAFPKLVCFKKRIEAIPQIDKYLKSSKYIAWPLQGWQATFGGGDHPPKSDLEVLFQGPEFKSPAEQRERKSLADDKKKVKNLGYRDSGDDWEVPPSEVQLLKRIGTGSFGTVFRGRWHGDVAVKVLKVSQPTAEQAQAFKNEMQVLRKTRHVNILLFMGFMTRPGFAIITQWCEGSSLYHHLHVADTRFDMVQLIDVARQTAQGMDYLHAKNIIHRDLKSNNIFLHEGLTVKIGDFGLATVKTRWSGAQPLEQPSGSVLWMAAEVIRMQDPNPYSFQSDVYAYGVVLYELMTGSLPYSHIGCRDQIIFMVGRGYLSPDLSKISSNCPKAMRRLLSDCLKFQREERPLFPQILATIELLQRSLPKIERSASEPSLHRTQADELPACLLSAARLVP
Nature of the test: Biochemical assay for A-Raf.1 (coupled pyruvate kinase/lactate dehydrogenase). As to conditions: read-out: ARAF.1 IC50. Put shortly:
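IC50 values came from four-parameter sigmoidal fits of percent inhibition, using rates over the 4 to 5 h window of continuous A340 readings (6 h, 30° C). The coupled PK/LDH system tracked NADH oxidation during 5.55 nM A-Raf activity on 30.1 nM MEK at 1 mM ATP, buffer pH 7.5.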
Consider `COC(=O)Nc1cc(-c2cnnc(-c3cc(NC(=O)N4CCC(CC(F)(F)F)C4)ccc3C)c2)ccn1` (stereo not drawn) [Example 186], for which the IC50 (usually the concentration at which inhibition is half-maximal) is more than 1000 nM.
The same measure, in the same setting: for `COC(=O)Nc1cc(-c2cc(-c3cc(NC(=O)NCCC4(C)CC4)ccc3F)cc(OCCO)n2)ccn1` [Example 187] the value was more than 1000 nM.
On the same count and under the same terms, for `COC(=O)Nc1cc(-c2cc(-c3cc(NC(=O)NCCC4(C)CC4)c(F)cc3F)cc(OCCO)n2)ccn1` [Example 188] the value was more than 1000 nM; for `COC(=O)Nc1cc(-c2nccc(-c3cc(NC(=O)N4CCC(C(F)(F)F)C4)ccc3C)n2)ccn1` (stereo not drawn) [Example 193], more than 1000 nM; for `Cc1ccc(NC(=O)N2CCC(CC(F)(F)F)C2)cc1-c1cncc(-c2cc(NC(=O)C3CC3)ncn2)c1` (stereo not drawn) [Example 194], more than 1000 nM.
On the same count and under the same terms, for `Cc1ccc(NC(=O)N2CC[C@@H](C(F)(F)F)C2)cc1-c1cncc(-c2ccnc(NC(=O)C3CC3)c2)c1` [Example 196] the value was more than 1000 nM; for `Cc1ccc(NC(=O)N2CC[C@H](C(F)(F)F)C2)cc1-c1cncc(-c2ccnc(NC(=O)C3CC3)c2)c1` [Example 197], 500 to 1000 nM; for `COC(=O)Nc1cc(-c2cncc(-c3cc(NC(=O)N4CCCCCC4)ccc3C)c2)ccn1` [Example 202], more than 1000 nM.
For `COC(=O)Nc1cc(-c2cnnc(-c3cc(NC(=O)N4CCC(C(C)(C)O)C4)ccc3C)c2)ccn1` (stereo not drawn) [Example 206], the IC50 was more than 1000 nM.
Still for that read-out and setting: to `Cc1ccc(NC(=O)N2CCC(CC(F)(F)F)C2)cc1-c1cncc(-c2cc(N)ncn2)c1` (stereo not drawn) [Example 207] belongs more than 1000 nM.
On the same count and under the same terms, to `COC(=O)Nc1cc(-c2cncc(-c3cc(NC(=O)N4CCCCC4)ccc3C)c2)ccn1` [Example 208] belongs more than 1000 nM.
Still for that read-out and setting: to `Cc1ccc(NC(=O)N2CCC(F)(F)C2)cc1-c1cncc(-c2cc(NC(=O)C3CC3)ncn2)c1` [Example 209] belongs more than 1000 nM; to `Cc1ccc(NC(=O)N2CC[C@@H](C(F)(F)F)C2)cc1-c1cncc(-c2cc(NC(=O)C3CC3)ncn2)c1` [Example 210], 500 to 1000 nM; to `COC(=O)Nc1cc(-c2cncc(-c3cc(NC(=O)N4CC[C@H](C(F)(F)F)C4)ccc3C)c2)ccn1` [Example 211], more than 1000 nM.
For `COC(=O)Nc1cc(-c2cncc(-c3cc(NC(=O)N4CCCC4)ccc3C)c2)ccn1` [Example 213], the IC50 was more than 1000 nM.
`Cc1ccc(NC(=O)N2CCC3(CC3)C2)cc1-c1cncc(-c2cc(NC(=O)C3CC3)ncn2)c1` [Example 218]: the IC50 was more than 1000 nM.
Same read-out and setting: for `Cc1ccc(NC(=O)N2CC[C@@H](C)C2)cc1-c1cncc(-c2cc(NC(=O)C3CC3)ncn2)c1` [Example 219] the value was more than 1000 nM.
On the same count and under the same terms, to `COC(=O)Nc1cc(-c2cc(-c3cc(NC(=O)N4CCC(C(F)(F)F)C4)ccc3C)cc(OCCO)n2)ccn1` (stereo not drawn) [Example 222] belongs more than 1000 nM; to `COC(=O)Nc1cc(-c2cc(-c3cc(NC(=O)N4CC[C@H](C(F)(F)F)C4)ccc3C)nc(C)n2)ccn1` [Example 223], more than 1000 nM.

A further test deals with T2, C-Raf kinase (Homo sapiens, UniProt P04049, Y340D/Y341D).
T2 construct: Y340D,; GST (N); purchased Sigma
T2 sequence (P04049 307-648 Y340D/Y341D): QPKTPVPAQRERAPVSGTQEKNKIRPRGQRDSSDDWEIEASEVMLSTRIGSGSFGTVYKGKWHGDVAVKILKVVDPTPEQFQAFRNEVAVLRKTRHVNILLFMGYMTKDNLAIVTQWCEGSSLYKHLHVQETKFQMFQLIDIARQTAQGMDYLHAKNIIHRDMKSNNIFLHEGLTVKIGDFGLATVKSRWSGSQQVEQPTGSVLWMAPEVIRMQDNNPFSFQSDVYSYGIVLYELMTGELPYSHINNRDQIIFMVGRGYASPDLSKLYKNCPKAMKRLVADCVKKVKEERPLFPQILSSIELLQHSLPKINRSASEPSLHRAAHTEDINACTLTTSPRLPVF
The experiment in a line: Biochemical assay for C-Raf.1 (coupled pyruvate kinase/lactate dehydrogenase). To be noted: read-out: CRAF.1 IC50. Put shortly: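 NADH depletion at 340 nm monitored continuously for 6 h at 30° C, with rates taken over 4–5 h. The coupled pyruvate kinase/lactate dehydrogenase reaction used 1 mM ATP, 30.1 nM MEK substrate and 0.43 nM kinase at pH 7.5. IC50 was fitted sigmoidally from percent inhibition of serially diluted compound.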
In the case of `COC(=O)Nc1cc(-c2cnnc(-c3cc(NC(=O)N4CCC(CC(F)(F)F)C4)ccc3C)c2)ccn1` (stereo not drawn) [Example 186], the IC50 was not above 100 nM.
Still for that read-out and setting: to `COC(=O)Nc1cc(-c2cc(-c3cc(NC(=O)NCCC4(C)CC4)ccc3F)cc(OCCO)n2)ccn1` [Example 187] belongs not above 100 nM; to `COC(=O)Nc1cc(-c2cc(-c3cc(NC(=O)NCCC4(C)CC4)c(F)cc3F)cc(OCCO)n2)ccn1` [Example 188], not above 100 nM; to `COC(=O)Nc1cc(-c2nccc(-c3cc(NC(=O)N4CCC(C(F)(F)F)C4)ccc3C)n2)ccn1` (stereo not drawn) [Example 193], not above 100 nM.
On the same count and under the same terms, to `Cc1ccc(NC(=O)N2CCC(CC(F)(F)F)C2)cc1-c1cncc(-c2cc(NC(=O)C3CC3)ncn2)c1` (stereo not drawn) [Example 194] belongs not above 100 nM; to `Cc1ccc(NC(=O)N2CC[C@@H](C(F)(F)F)C2)cc1-c1cncc(-c2ccnc(NC(=O)C3CC3)c2)c1` [Example 196], not above 100 nM.
The same measure, in the same setting: to `Cc1ccc(NC(=O)N2CC[C@H](C(F)(F)F)C2)cc1-c1cncc(-c2ccnc(NC(=O)C3CC3)c2)c1` [Example 197] belongs not above 100 nM; to `COC(=O)Nc1cc(-c2cncc(-c3cc(NC(=O)N4CCCCCC4)ccc3C)c2)ccn1` [Example 202], 100 to 500 nM; to `COC(=O)Nc1cc(-c2cnnc(-c3cc(NC(=O)N4CCC(C(C)(C)O)C4)ccc3C)c2)ccn1` (stereo not drawn) [Example 206], 100 to 500 nM.
Consider `Cc1ccc(NC(=O)N2CCC(CC(F)(F)F)C2)cc1-c1cncc(-c2cc(N)ncn2)c1` (stereo not drawn) [Example 207], for which the IC50 is not above 100 nM.
Same read-out and setting: to `COC(=O)Nc1cc(-c2cncc(-c3cc(NC(=O)N4CCCCC4)ccc3C)c2)ccn1` [Example 208] belongs 100 to 500 nM; to `Cc1ccc(NC(=O)N2CCC(F)(F)C2)cc1-c1cncc(-c2cc(NC(=O)C3CC3)ncn2)c1` [Example 209], not above 100 nM.
Consider `Cc1ccc(NC(=O)N2CC[C@@H](C(F)(F)F)C2)cc1-c1cncc(-c2cc(NC(=O)C3CC3)ncn2)c1` [Example 210], for which the IC50 was not above 100 nM.
On the same count and under the same terms, for `COC(=O)Nc1cc(-c2cncc(-c3cc(NC(=O)N4CC[C@H](C(F)(F)F)C4)ccc3C)c2)ccn1` [Example 211] the value was not above 100 nM.
In the case of `COC(=O)Nc1cc(-c2cncc(-c3cc(NC(=O)N4CCCC4)ccc3C)c2)ccn1` [Example 213], the IC50 was 500 to 1000 nM.
Same read-out and setting: to `Cc1ccc(NC(=O)N2CCC3(CC3)C2)cc1-c1cncc(-c2cc(NC(=O)C3CC3)ncn2)c1` [Example 218] belongs not above 100 nM; to `Cc1ccc(NC(=O)N2CC[C@@H](C)C2)cc1-c1cncc(-c2cc(NC(=O)C3CC3)ncn2)c1` [Example 219], not above 100 nM; to `COC(=O)Nc1cc(-c2cc(-c3cc(NC(=O)N4CCC(C(F)(F)F)C4)ccc3C)cc(OCCO)n2)ccn1` (stereo not drawn) [Example 222], not above 100 nM.
The same measure, in the same setting: for `COC(=O)Nc1cc(-c2cc(-c3cc(NC(=O)N4CC[C@H](C(F)(F)F)C4)ccc3C)nc(C)n2)ccn1` [Example 223] the value was 100 to 500 nM.

A further test deals with T3, B-Raf (V600E) kinase (Homo sapiens, UniProt P15056, V600E).
T3 construct: B-Raf (V600E) residues 416-766 with a; GST (N); purchased SignalChem
T3 sequence (P15056 416-766 V600E): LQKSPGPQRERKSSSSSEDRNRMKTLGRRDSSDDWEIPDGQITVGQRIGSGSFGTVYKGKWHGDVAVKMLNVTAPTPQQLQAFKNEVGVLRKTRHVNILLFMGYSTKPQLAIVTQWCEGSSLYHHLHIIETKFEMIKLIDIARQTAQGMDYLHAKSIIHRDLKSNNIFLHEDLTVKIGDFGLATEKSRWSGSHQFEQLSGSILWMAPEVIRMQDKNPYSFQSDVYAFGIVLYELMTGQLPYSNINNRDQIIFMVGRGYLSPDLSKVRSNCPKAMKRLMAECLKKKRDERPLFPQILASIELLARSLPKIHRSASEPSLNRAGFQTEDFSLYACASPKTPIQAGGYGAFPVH
Nature of the test: Biochemical assay for B-Raf (V600E).1 (coupled pyruvate kinase/lactate dehydrogenase). To be noted: read-out: BRAF V600E.1 IC50. Put shortly: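 IC50 came from four-parameter sigmoidal fits of percent inhibition, using reaction rates over 3-4 h. Continuous A340 reading (6 h, 30 °C) of a pyruvate kinase/lactate dehydrogenase-coupled reaction: B-Raf V600E 0.03 nM, MEK 30.1 nM, ATP 1 mM, Tris pH 7.5, 1% DMSO.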
Consider `COC(=O)Nc1cc(-c2cnnc(-c3cc(NC(=O)N4CCC(CC(F)(F)F)C4)ccc3C)c2)ccn1` (stereo not drawn) [Example 186], for which the IC50 was not above 100 nM.
Same read-out and setting: to `COC(=O)Nc1cc(-c2cc(-c3cc(NC(=O)NCCC4(C)CC4)ccc3F)cc(OCCO)n2)ccn1` [Example 187] belongs 100 to 500 nM.
For the molecule `COC(=O)Nc1cc(-c2cc(-c3cc(NC(=O)NCCC4(C)CC4)c(F)cc3F)cc(OCCO)n2)ccn1` [Example 188], the IC50 is not above 100 nM.
The same measure, in the same setting: for `COC(=O)Nc1cc(-c2nccc(-c3cc(NC(=O)N4CCC(C(F)(F)F)C4)ccc3C)n2)ccn1` (stereo not drawn) [Example 193] the value was 100 to 500 nM.
Still for that read-out and setting: to `Cc1ccc(NC(=O)N2CCC(CC(F)(F)F)C2)cc1-c1cncc(-c2cc(NC(=O)C3CC3)ncn2)c1` (stereo not drawn) [Example 194] belongs not above 100 nM; to `Cc1ccc(NC(=O)N2CC[C@@H](C(F)(F)F)C2)cc1-c1cncc(-c2ccnc(NC(=O)C3CC3)c2)c1` [Example 196], not above 100 nM.
As to `Cc1ccc(NC(=O)N2CC[C@H](C(F)(F)F)C2)cc1-c1cncc(-c2ccnc(NC(=O)C3CC3)c2)c1` [Example 197], the IC50 was not above 100 nM.
Same read-out and setting: for `COC(=O)Nc1cc(-c2cncc(-c3cc(NC(=O)N4CCCCCC4)ccc3C)c2)ccn1` [Example 202] the value was 100 to 500 nM; for `COC(=O)Nc1cc(-c2cnnc(-c3cc(NC(=O)N4CCC(C(C)(C)O)C4)ccc3C)c2)ccn1` (stereo not drawn) [Example 206], more than 1000 nM.
Same read-out and setting: to `Cc1ccc(NC(=O)N2CCC(CC(F)(F)F)C2)cc1-c1cncc(-c2cc(N)ncn2)c1` (stereo not drawn) [Example 207] belongs 500 to 1000 nM.
On to `COC(=O)Nc1cc(-c2cncc(-c3cc(NC(=O)N4CCCCC4)ccc3C)c2)ccn1` [Example 208], for which the IC50 was more than 1000 nM.
On the same count and under the same terms, to `Cc1ccc(NC(=O)N2CCC(F)(F)C2)cc1-c1cncc(-c2cc(NC(=O)C3CC3)ncn2)c1` [Example 209] belongs 100 to 500 nM; to `Cc1ccc(NC(=O)N2CC[C@@H](C(F)(F)F)C2)cc1-c1cncc(-c2cc(NC(=O)C3CC3)ncn2)c1` [Example 210], not above 100 nM; to `COC(=O)Nc1cc(-c2cncc(-c3cc(NC(=O)N4CC[C@H](C(F)(F)F)C4)ccc3C)c2)ccn1` [Example 211], not above 100 nM.
Regarding `COC(=O)Nc1cc(-c2cncc(-c3cc(NC(=O)N4CCCC4)ccc3C)c2)ccn1` [Example 213], the IC50 lay within 500 to 1000 nM.
The same measure, in the same setting: to `Cc1ccc(NC(=O)N2CCC3(CC3)C2)cc1-c1cncc(-c2cc(NC(=O)C3CC3)ncn2)c1` [Example 218] belongs not above 100 nM; to `Cc1ccc(NC(=O)N2CC[C@@H](C)C2)cc1-c1cncc(-c2cc(NC(=O)C3CC3)ncn2)c1` [Example 219], 100 to 500 nM.
The same measure, in the same setting: to `COC(=O)Nc1cc(-c2cc(-c3cc(NC(=O)N4CCC(C(F)(F)F)C4)ccc3C)cc(OCCO)n2)ccn1` (stereo not drawn) [Example 222] belongs not above 100 nM; to `COC(=O)Nc1cc(-c2cc(-c3cc(NC(=O)N4CC[C@H](C(F)(F)F)C4)ccc3C)nc(C)n2)ccn1` [Example 223], more than 1000 nM.
